The text below walks through data of US8507535B2 (Hoffmann-La Roche Inc., priority 2010, dated 2013).

Molecules are shown by their SMILES. Like-named read-outs stand apart in the source and are kept apart here.

The target of the test is human NK3 receptor (Homo sapiens (Human), UniProt P29371). The test can be described thus: [3H]SR142801 competition binding assay. Conditions: membranes from HEK293 cells transiently expressing recombinant human NK3 receptor, [3H]SR142801 radioligand. The procedure:
[^3H]SR142801 Competition Binding Assay
hNK3 receptor binding experiment were performed using [^3H]SR142801 (Catalog No. TRK1035, specific activity: 74.0 Ci/mmol, Amersham, GE Healthcare UK limited, Buckinghamshire, UK) and membrane isolated from HEK293 cells transiently expressing recombinant human NK3 receptor. After thawing, the membrane homogenates were centrifuged at 48,000×g for 10 min at 4° C., the pellets were resuspended in the 50 mM Tris-HCl, 4 mM MnCl2, 1 μM phosphoramidon, 0.1% BSA binding buffer at pH 7.4 to a final assay concentration of 5 μg protein/well. For inhibition experiments, membranes were incubated with [^3H]SR142801 at a concentration equal to KD value of radioligand and 10 concentrations of the inhibitory compound (0.0003-10 μM) (in a total reaction volume of 500 μl) for 75 min at room temperature (RT). At the end of the incubation, membranes were filtered onto unitfilter (96-well white microplate with bonded GF/C filter preincubated 1 h in 0.3% PEI+0.3% BSA, Packard BioScience, Meriden, Conn.) with a Filtermate 196 harvester (Packard BioScience) and washed 4 times with ice-cold 50 mM Tris-HCl, pH 7.4 buffer. Nonspecific binding was measured in the presence of 10 μM SB222200 for both radioligands. The radioactivity on the filter was counted (5 min) on a Packard Top-count microplate scintillation counter with quenching correction after addition of 45 μl of microscint 40 (Can berra Packard S. A., Zurich, Switzerland) and shaking for 1 h. Inhibition curves were fitted according to the Hill equation: y=100/(1+(x/IC50)^nH), where nH=slope factor using Excel-fit 4 software (Microsoft). IC50 values were derived from the inhibition curve and the affinity constant (Ki) values were calculated using the Cheng-Prussoff equation Ki=IC50/(1+[L]/KD) where [L] is the concentration of radioligand and KD is its dissociation constant at the receptor, derived from the saturation isotherm. All experiments were performed in duplicate and the mean±standard error (SEM) of the individual Ki values was calculated.

[1] abbreviates: second half of table, head prints nM, read-out: Ki (nM) hNK3.

Sequence of human NK3 receptor (P29371 whole entry): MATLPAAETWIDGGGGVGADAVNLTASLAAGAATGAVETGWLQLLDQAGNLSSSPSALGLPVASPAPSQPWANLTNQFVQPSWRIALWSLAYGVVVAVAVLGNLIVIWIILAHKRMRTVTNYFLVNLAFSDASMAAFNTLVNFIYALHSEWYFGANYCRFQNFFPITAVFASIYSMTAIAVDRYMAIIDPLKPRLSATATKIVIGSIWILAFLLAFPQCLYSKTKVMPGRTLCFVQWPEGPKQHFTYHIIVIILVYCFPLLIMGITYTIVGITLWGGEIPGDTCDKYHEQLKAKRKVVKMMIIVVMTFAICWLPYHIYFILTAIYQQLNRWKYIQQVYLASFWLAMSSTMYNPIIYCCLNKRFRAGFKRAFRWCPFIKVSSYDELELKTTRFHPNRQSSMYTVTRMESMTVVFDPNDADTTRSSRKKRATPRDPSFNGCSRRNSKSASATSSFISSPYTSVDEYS

`C[C@]1(COc2ccc(Cl)cn2)CN(C(=O)C2CCN(c3ccc(C(F)(F)F)cn3)CC2)C[C@@H]1c1ccc(Cl)cc1` (racemic) [Example 22, [(3RS,4RS)-4-(4-Chloro-phenyl)-3-(5-chloro-pyridin-2-yloxymethyl)-3-methyl-pyrrolidin-1-yl]-(5′-trifluoromethyl-3,4,5,6-tetrahydro-2H-[1,2′]bipyridinyl-4-yl)-methanone]: under setting [1], the inhibitory constant (Ki) amounted to 27.2 nM.
Still for that read-out and setting: as for `C[C@]1(COc2ccc(Cl)cn2)CN(C(=O)c2ccc(N3CCCCC3=O)cc2)C[C@@H]1c1ccc(Cl)cc1` (racemic) [Example 27, 1-{4-[(3RS,4RS)-4-(4-Chloro-phenyl)-3-(5-chloro-pyridin-2-yloxymethyl)-3-methyl-pyrrolidine-1-carbonyl]-phenyl}-piperidin-2-one], the figure is 93.1 nM.
As to `C[C@]1(COc2ccc(Cl)cn2)CN(C(=O)c2ccc(C#N)cc2)C[C@@H]1c1ccc(Cl)cc1` (racemic) [Example 8, 4-[(3RS,4RS)-4-(4-Chloro-phenyl)-3-(5-chloro-pyridin-2-yloxymethyl)-3-methyl-pyrrolidine-1-carbonyl]-benzonitrile], the inhibition constant Ki (read-out: Ki (uM) hNK3) was found to be 45.1 nM.
With `Cc1nc(-c2ccc(C(=O)N3C[C@H](c4ccc(Cl)cc4)[C@@](C)(COc4ccc(Cl)cn4)C3)cc2)no1` (racemic) [Example 24, [(3RS,4RS)-4-(4-Chloro-phenyl)-3-(5-chloro-pyridin-2-yloxymethyl)-3-methyl-pyrrolidin-1-yl]-[4-(5-methyl-[1,2,4]oxadiazol-3-yl)-phenyl]-methanone], the inhibition constant (Ki) under setting [1] stood at 26.1 nM.
As to `Cc1noc(-c2ccc(C(=O)N3C[C@H](c4ccc(Cl)cc4)[C@@](C)(COc4ccc(Cl)cn4)C3)cc2)n1` (racemic) [Example 7, [(3RS,4RS)-4-(4-Chloro-phenyl)-3-(5-chloro-pyridin-2-yloxymethyl)-3-methyl-pyrrolidin-1-yl]-[4-(3-methyl-[1,2,4]oxadiazol-5-yl)-phenyl]-methanone], the Ki (read-out: Ki (uM) hNK3) came to 4.3 nM.
As for `C[C@]1(COc2ccc(Cl)cn2)CN(C(=O)C2CCN(c3ccc(F)cn3)CC2)C[C@@H]1c1ccc(Cl)cc1` (racemic) [Example 19, [(3RS,4RS)-4-(4-Chloro-phenyl)-3-(5-chloro-pyridin-2-yloxymethyl)-3-methyl-pyrrolidin-1-yl]-(5′-fluoro-3,4,5,6-tetrahydro-2H-[1,2′]bipyridinyl-4-yl)-methanone], the Ki under setting [1] was found to be 11.2 nM.
As to `CC(C)C(=O)N1CCC(C(=O)N2C[C@H](c3ccc(Cl)cc3)[C@@](C)(COc3ccc(Cl)cn3)C2)CC1` (racemic) [Example 13, 1-{4-[(3RS,4RS)-4-(4-Chloro-phenyl)-3-(5-chloro-pyridin-2-yloxymethyl)-3-methyl-pyrrolidine-1-carbonyl]-piperidin-1-yl}-2-methyl-propan-1-one], the Ki (read-out: Ki (uM) hNK3) worked out at 8.7 nM.
The same measure, in the same setting: the result for `C[C@]1(COc2ccc(Cl)cn2)CN(C(=O)C2CCN(C3CCCCC3)CC2)C[C@@H]1c1ccc(Cl)cc1` (racemic) [Example 14, [(3RS,4RS)-4-(4-Chloro-phenyl)-3-(5-chloro-pyridin-2-yloxymethyl)-3-methyl-pyrrolidin-1-yl]-(1-cyclohexyl-piperidin-4-yl)-methanone] reads 15 nM; that for `CC(C)CN1CCC(C(=O)N2C[C@H](c3ccc(Cl)cc3)[C@@](C)(COc3ccc(Cl)cn3)C2)CC1` (racemic) [Example 12, [(3RS,4RS)-4-(4-Chloro-phenyl)-3-(5-chloro-pyridin-2-yloxymethyl)-3-methyl-pyrrolidin-1-yl]-(1-isobutyl-piperidin-4-yl)-methanone], 22.5 nM.
Regarding `C[C@]1(COc2ccc(Cl)cn2)CN(C(=O)C2CCN(c3ccc(C#N)cn3)CC2)C[C@@H]1c1ccc(Cl)cc1` (racemic) [Example 16, 4-[(3RS,4RS)-4-(4-Chloro-phenyl)-3-(5-chloro-pyridin-2-yloxymethyl)-3-methyl-pyrrolidine-1-carbonyl]-3,4,5,6-tetrahydro-2H-[1,2′]bipyridinyl-5′-carbonitrile], under setting [1], the inhibitory constant (Ki) was 3.7 nM.
Consider `COc1ccc(C(=O)N2C[C@H](c3ccc(Cl)cc3)[C@@](C)(COc3ccc(Cl)cn3)C2)cn1` (racemic) [Example 9, [(3RS,4RS)-4-(4-Chloro-phenyl)-3-(5-chloro-pyridin-2-yloxymethyl)-3-methyl-pyrrolidin-1-yl]-(6-methoxy-pyridin-3-yl)-methanone], for which the Ki (read-out: Ki (uM) hNK3) was determined as 56.3 nM.
On the same count and under the same terms, the result for `C[C@]1(COc2ccc(Cl)cn2)CN(C(=O)C2CCOCC2)C[C@@H]1c1ccc(Cl)cc1` (racemic) [Example 10, [(3RS,4RS)-4-(4-Chloro-phenyl)-3-(5-chloro-pyridin-2-yloxymethyl)-3-methyl-pyrrolidin-1-yl]-(tetrahydro-pyran-4-yl)-methanone] reads 87.4 nM.
Consider `CC(=O)c1ccc(N2CCC(C(=O)N3C[C@H](c4ccc(Cl)cc4)[C@@](C)(COc4ccc(Cl)cn4)C3)CC2)nc1` (racemic) [Example 18, 1-{4-[(3RS,4RS)-4-(4-Chloro-phenyl)-3-(5-chloro-pyridin-2-yloxymethyl)-3-methyl-pyrrolidine-1-carbonyl]-3,4,5,6-tetrahydro-2H-[1,2′]bipyridinyl-5′-yl}-ethanone], for which the Ki under setting [1] was 5.9 nM.
Regarding `C[C@]1(COc2ccc(Cl)cn2)CN(C(=O)C2CCN(c3ccc(Cl)cn3)CC2)C[C@@H]1c1ccc(Cl)cc1` (racemic) [Example 20, [(3RS,4RS)-4-(4-Chloro-phenyl)-3-(5-chloro-pyridin-2-yloxymethyl)-3-methyl-pyrrolidin-1-yl]-(5′-chloro-3,4,5,6-tetrahydro-2H-[1,2′]bipyridinyl-4-yl)-methanone], under setting [1], the Ki was 19.3 nM.
As for `C[C@]1(COc2ccc(Cl)cn2)CN(C(=O)C2CCN(c3ccc(C#N)cc3)CC2)C[C@@H]1c1ccc(Cl)cc1` (racemic) [Example 17, 4-{4-[(3RS,4RS)-4-(4-Chloro-phenyl)-3-(5-chloro-pyridin-2-yloxymethyl)-3-methyl-pyrrolidine-1-carbonyl]-piperidin-1-yl}-benzonitrile], the Ki under setting [1] was 2.3 nM.
The same measure, in the same setting: the result for `C[C@]1(COc2ccc(Cl)cn2)CN(C(=O)C2CCN(c3ccc(C#N)nc3)CC2)C[C@@H]1c1ccc(Cl)cc1` (racemic) [Example 25, 4-[(3RS,4RS)-4-(4-Chloro-phenyl)-3-(5-chloro-pyridin-2-yloxymethyl)-3-methyl-pyrrolidine-1-carbonyl]-3,4,5,6-tetrahydro-2H-[1,3′]bipyridinyl-6′-carbonitrile] reads 4.4 nM.
`C[C@]1(COc2ccc(Cl)cn2)CN(C(=O)c2ccnc(Cl)c2)C[C@@H]1c1ccc(Cl)cc1` (racemic) [Example 5]: the Ki (read-out: Ki (uM) hNK3) was 61.8 nM.
Same read-out and setting: the result for `C[C@]1(COc2ccc(Cl)cn2)CN(C(=O)c2ccc(-n3cccn3)nc2)C[C@@H]1c1ccc(Cl)cc1` (racemic) [Example 6, [(3RS,4RS)-4-(4-Chloro-phenyl)-3-(5-chloro-pyridin-2-yloxymethyl)-3-methyl-pyrrolidin-1-yl]-(6-pyrazol-1-yl-pyridin-3-yl)-methanone] reads 35.2 nM.
On to `COc1ccc(N2CCC(C(=O)N3C[C@H](c4ccc(Cl)cc4)[C@@](C)(COc4ccc(Cl)cn4)C3)CC2)nn1` [Example 26, [(3R,4R)-4-(4-Chloro-phenyl)-3-(5-chloro-pyridin-2-yloxymethyl)-3-methyl-pyrrolidin-1-yl]-[1-(6-methoxy-pyridazin-3-yl)-piperidin-4-yl]-methanone], for which the inhibition constant Ki under setting [1] came out at 11.4 nM.
`CC1(C(=O)N2CCC(C(=O)N3C[C@H](c4ccc(Cl)cc4)[C@@](C)(COc4ccc(Cl)cn4)C3)CC2)CC1` (racemic) [Example 3, [(3RS,4RS)-4-(4-Chloro-phenyl)-3-(5-chloro-pyridin-2-yloxymethyl)-3-methyl-pyrrolidin-1-yl]-[1-(1-methyl-cyclopropanecarbonyl)-piperidin-4-yl]-methanone]: the Ki (read-out: Ki (uM) hNK3) stood at 7.2 nM.
On to `C[C@]1(COc2ccc(Cl)cn2)CN(C(=O)c2ccc(C#N)nc2)C[C@@H]1c1ccc(Cl)cc1` (racemic) [Example 21, 5-[(3RS,4RS)-4-(4-Chloro-phenyl)-3-(5-chloro-pyridin-2-yloxymethyl)-3-methyl-pyrrolidine-1-carbonyl]-pyridine-2-carbonitrile], for which the Ki under setting [1] amounted to 39 nM.
Turning to `CC(=O)N1CCC(C(=O)N2C[C@H](c3ccc(Cl)cc3)[C@@](C)(COc3ccc(Cl)cn3)C2)CC1` (racemic) [Example 11, 1-{4-[(3RS,4RS)-4-(4-Chloro-phenyl)-3-(5-chloro-pyridin-2-yloxymethyl)-3-methyl-pyrrolidine-1-carbonyl]-piperidin-1-yl}-ethanone], where the note is “read-out: Ki (uM) hNK3”, the Ki was 10.6 nM.

As a reminder, the Ki is a dissociation constant, usually derived from enzyme kinetics or from competition with a known ligand.
